Experimental data published in patent US6756206B2, “Adsorption and removal of endotoxin from physiological fluids using cationic helix peptides” (Commonwealth Biotechnologies, Inc., priority 1998, dated 2004).
Read-outs that look alike come from different tables or passages of the source. No end group written: not given here.

B1: rHBP: recombinant heparin binding protein; formerly known as cationic antimicrobial protein or bactericidal/permeability increasing factor (protein, UniProt P20160 27-248, looked up)
Azurocidin: IVGGRKARPRQFPFLASIQNQGRHFCGGALIHARFVMTAASCFQSQNPGVSTVVLGAYDLRRRERQSRQTFSISSMSENGYDPQQNLNDLMLLQLDREANLTSSVTILPLPLQNATVEAGTRCQVAGWGSQRSGGRLSRFPRFVNVTVTPEDQCRPNNVCTGVLTRRGGICNGDGGTPLVCEGLAHGVASFSLGPCGRGPDFFTRVALFRDWIDGVLNNPGP

Experiments:
[1] = Neutralization of endotoxin purposely added to plasma or buffer, kinetic chromogenic Limulus amebocyte lysate endotoxin assay; format: biochemical; settings: for neutralization (binding) of endotoxin, in words: endotoxin added to plasma or aqueous samples; for Percent binding of Endotoxin: plasma, endotoxin 10 ng/mL
Method: The presence of endotoxin may routinely be measured using, for example, a kinetic chromogenic method. The assay involves a complete set of enzyme reactions which are described in detail in the following publications, each of which is hereby incorporated by reference.
In the course of the endotoxin assay, a calibration curve is prepared which is a plot of logarithm of the time of the kinetic endpoint of a chromogenic reaction versus the logarithm of known concentrations of endotoxin.
Thus, if endotoxin is added to aqueous buffer solutions or to plasma the amount of endotoxin present can be assayed by reference to the calibration curve. Similarly, if plasma, plasma fractions, patient samples or any test solution contains an endogenous level of endotoxin, the level can also be determined by reference to the calibration curve.
Endotoxin was purposely added to plasma to a final concentration of 10 ng/mL and increasing concentrations of the compounds Arg Helix #2 (a monomeric cationic helix peptide), Bis Arg Helix #2 (which contains 2 copies of Arg Helix #2), Tris Arg Helix #3 (which contains 3 copies of Arg Helix #3), Tetra Arg Helix #3 (4 copies of Arg Helix #3) or Tris Arg Helix #3 (constrained) (3 copies of Arg Helix #3 constrained by design to present a “binding groove” within the molecule) were added to these same samples (Table 1).

[2] = cited from earlier work

Row | Molecule | neutralization (binding) of endotoxin, in words [1] | Percent binding of Endotoxin ([1]; peptide concentration 0.01 mg/mL) [%] | Percent binding of Endotoxin ([1]; peptide concentration 0.1 mg/mL) [%] | Percent binding of Endotoxin ([1]; peptide concentration 0.5 mg/mL) [%] | Percent binding of Endotoxin ([1]; peptide concentration 1.0 mg/mL) [%] | Survival ([2]; animals treated with cefoxitin and rHBP, compared to controls) | Survival ([2]; mice pretreated well in advance) | Survival ([2]; treated at the time of ligation and puncture, versus control group)
1 | Bis Arg Helix #2: contains 2 copies of Arg Helix #2; SEQ ID NOS.:2 and 3, FIG. 1A (chain 1 ARAARRAARAAARRARAEA; chain 2 AEARARRAAARAARRAARA; also: two copies linked, linkage not given here) | very little neutralization (binding) activity | 0.00 | 24.7 | 51.2 | 63.5 | – | – | –
2 | protamine [reference compound] | ineffective in neutralizing endotoxin | – | – | – | – | – | – | –
3 | B1 | – | – | – | – | – | increased significantly | increased | not significantly different
